Laboratory results: US20230235301A1, “Compounds and Methods for Treating, Ameliorating, or Preventing Herpes Ocular Keratitis” (THE TRUSTEES OF THE UNIVERSITY OF PENNSYLVANIA, priority 2020, published 2023)
Like-named read-outs stand apart in the source and are kept apart here. Positions of bridges follow the written chain, without caps; N, C: chain ends. Non-standard residues stand in square brackets, D forms with d. Residues, ends and D or L forms follow the SMILES beside them. No end group written: not given here. S5 = C=CCCC[C@](C)(N)C(=O)O

Columns and labels:
[1] = test system: HSV-1; test: microbe, parasite or virus in culture; format: cell-based
Procedure: Cells with ~90% confluence in 48-well plates were infected by absorbing virus (~100 PFU/well) for 1 h in 100 µL growth medium followed by adding 200 µL culture medium containing DMSO vehicle or serially diluted peptides or Acyclovir (Tocris Bioscience-Fisher Scientific) to each well of the plate. DMSO was maintained at 1% throughout the treatment. Cells were subsequently fixed and stained with 300 µL PBS containing 4% formaldehyde and 0.2% crystal violet overnight at room temperature. HSV-1 plaques were quantified at ~55 h post-infection of Vero cells. VV (WR strain) infection of BSC-1 cells was analyzed for plaque formation after 24 h. The plaque reduction assays were performed in duplicate and independently repeated twice. Cells were stained, and plaques counted under a dissecting microscope. Data were plotted on the GraphPad Prism.
Standard viral plaque reduction assays were conducted in Vero cells to determine if any of the five stapled peptides (S-pep1/3/4/7/8) that were able to block processive DNA synthesis, could also block HSV-1 infection. To minimize possible interference of HSV-1 cell attachment and entry by the peptides, cells were first infected by absorbing the virus for 1 h, followed by treatment with peptides at serial dilutions. […] The EC50 values of both S-pep3 and S-pep8 were approximately 100 µM (FIG. 15C and FIG. 15F). Additionally, S-pep4 was toxic at 12.5 µM, which precluded further optimization.

[2] = molecular target: HSV-1 UL30 DNA Polymerase and UL42 Processivity Factor (Human herpesvirus 1, UniProt P10226); test: In vitro processive DNA synthesis assay (ELISA-based Rapid Plate Assay); format: biochemical; conditions: for IC50, µM* (HSV1 UL30+UL42): inhibition of HSV-1 processive DNA synthesis in vitro by UL30 and UL42
Procedure: The assay was performed by the enzyme-linked immunosorbent assay (ELISA)-based Rapid Plate Assay (J. Virol. Methods 2000, 88:219-225; Methods Mol. Biol. 2005, 292:481-492; J. Med. Chem. 2008, 51:6563-6570), using in vitro translated viral DNA polymerase and processivity factor.
Briefly, the assay comprised a 100-nucleotide single-stranded DNA template that has biotin covalently linked to the 5′ end. The biotin-labeled oligonucleotide template was immobilized onto streptavidin, which was coated onto each well of a micro-titer plate. An oligonucleotide primer (15mer) was annealed to the 3′ end of the biotin-labeled DNA template. HSV-1 UL-30 and HSV-1 UL-42 (either in vitro translated or purified) were added and incubated with serial dilutions of the stapled peptides. DNA synthesis was measured by direct incorporation of the 4 dNTPs as well as the signal nucleotide, digoxigenin-dUTP (1:5, dig-dUTP:dTTP). A peroxidase-conjugated anti-digoxigenin antibody that recognizes the newly synthesized DNA generated a colorimetric reaction that was quantified with a plate reader at 405 nm.
In certain non-limiting embodiments, the shown staples (or tethers), which provide rigidity, had linked-spacing of one full turn (i,i+4) or two full turns (i,i+7) of the helix to stay in helical register (3.6 amino acids/turn). In other embodiments, the staple was on the solvation side of the helix. Residues on the opposite side contact the PF target protein UL42. These UL42 residues are D63, R64 and K289 (FIGS. 13A-13C). Hydrogen bonds between residues of UL42 and C-Pol are shown as dotted lines. The IC50 values recited herein were quantitated using the assay described in U.S. Pat. No. 6,204,028, which is incorporated herein in its entirety by reference (FIG. 14).

[3] = molecular target: T1, HSV-1 Processivity Factor (UL42) (HSV-1 (strain KOS), UniProt P10226 1-488); test: cell-based or functional assay
T1 sequence: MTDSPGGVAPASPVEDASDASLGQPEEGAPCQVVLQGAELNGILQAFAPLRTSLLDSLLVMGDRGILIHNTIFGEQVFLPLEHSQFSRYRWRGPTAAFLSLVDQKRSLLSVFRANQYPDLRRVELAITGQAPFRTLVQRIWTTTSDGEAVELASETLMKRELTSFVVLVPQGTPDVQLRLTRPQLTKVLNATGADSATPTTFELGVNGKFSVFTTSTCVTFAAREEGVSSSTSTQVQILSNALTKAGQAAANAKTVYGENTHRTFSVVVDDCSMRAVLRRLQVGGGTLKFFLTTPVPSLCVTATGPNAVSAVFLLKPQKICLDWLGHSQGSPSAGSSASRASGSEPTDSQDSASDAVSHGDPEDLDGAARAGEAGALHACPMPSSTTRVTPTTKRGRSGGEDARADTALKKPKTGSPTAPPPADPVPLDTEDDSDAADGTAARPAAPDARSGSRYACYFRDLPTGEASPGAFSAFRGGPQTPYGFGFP

CC(=O)N[C@@H](C)C(=O)N[C@@H](CCC(=O)O)C(=O)N[C@@]1(C)CCCC=CCCC[C@@](C)(C(=O)N[C@@H](CC(C)C)C(=O)N[C@@H](Cc2c[nH]cn2)C(=O)N[C@@H](CCCNC(=N)N)C(=O)N[C@@H](C)C(=O)N[C@@H](Cc2ccccc2)C(=O)N[C@@H](CC(=O)O)C(=O)N[C@H](C(=O)N[C@@H](CC(C)C)C(=O)N[C@@H](C)C(=O)O)[C@@H](C)O)NC(=O)[C@H](CCCNC(=N)N)NC(=O)[C@H](CCCNC(=N)N)NC(=O)[C@H]([C@@H](C)O)NC1=O [S-pep3, Ac-AEXTRRXLHRAFDTLA] (Ac-AE[S5]TRR[S5]LHRAFDTLA-OH; staple 3-7; C-terminus assumed)
EC50 ([1]; 1 h): ~100 µM

CSCC[C@@H]1NC(=O)[C@H](CCCNC(=N)N)NC(=O)[C@H](CCCNC(=N)N)NC(=O)[C@@](C)(NC(C)=O)CCCC=CCCC[C@@](C)(C(=O)N[C@@H](Cc2c[nH]cn2)C(=O)N[C@@H](CCCNC(=N)N)C(=O)N[C@@H](C)C(=O)N[C@@H](Cc2ccccc2)C(=O)N[C@@H](CC(=O)O)C(=O)N[C@H](C(=O)N[C@@H](CC(C)C)C(=O)N[C@@H](C)C(=O)O)[C@@H](C)O)NC1=O [S-pep5, Ac-XRRMXHRAFDTLA] (Ac-[S5]RRM[S5]HRAFDTLA-OH; staple 1-5)
IC50 [2]: > 200 µM | IC50, µM* (HSV1 UL30+UL42) [2]: failed to inhibit

CSCC[C@H](NC(=O)[C@H](CCCNC(=N)N)NC(=O)[C@H](CCCNC(=N)N)NC(=O)[C@@H](NC(=O)[C@H](CCC(=O)O)NC(C)=O)[C@@H](C)O)C(=O)N[C@@H](CC(C)C)C(=O)N[C@@H](Cc1c[nH]cn1)C(=O)N[C@@H](CCCNC(=N)N)C(=O)N[C@@H](C)C(=O)N[C@@H](Cc1ccccc1)C(=O)N[C@@H](CC(=O)O)C(=O)N[C@H](C(=O)N[C@@H](CC(C)C)C(=O)N[C@@H](C)C(=O)O)[C@@H](C)O [N-pep, Ac-ETRRMLHRAFDTLA, reference compound]
IC50 [2]: > 200 µM | IC50, µM* (HSV1 UL30+UL42) ([2]; listed as Non-stapled): no inhibition | IC50, µM* (HSV1 UL30+UL42) ([2]; listed as native (unstapled) C-Pol peptide): fails to inhibit | EC50 ([1]; 1 h): > 200 µM

CSCC[C@H](NC(=O)[C@H](CCCNC(=N)N)NC(=O)[C@H](CCCNC(=N)N)NC(=O)[C@@H](NC(=O)[C@H](CCC(=O)O)NC(C)=O)[C@@H](C)O)C(=O)N[C@@H](CC(C)C)C(=O)N[C@@H](Cc1c[nH]cn1)C(=O)N[C@@]1(C)CCCC=CCCC[C@@](C)(C(=O)N[C@@H](CC(C)C)C(=O)N[C@@H](C)C(=O)O)NC(=O)[C@H](CC(=O)O)NC(=O)[C@H](Cc2ccccc2)NC(=O)[C@H](C)NC1=O [S-pep8, Ac-ETRRMLHXAFDXLA] (Ac-ETRRMLH[S5]AFD[S5]LA-OH; staple 8-12; C-terminus assumed)
EC50 ([1]; 1 h): ~100 µM

CC(=O)N[C@@]1(C)CCCC=CCCC[C@@](C)(C(=O)N[C@@H](CC(C)C)C(=O)N[C@@H](Cc2c[nH]cn2)C(=O)N[C@@H](CCCNC(=N)N)C(=O)N[C@@H](C)C(=O)N[C@@H](Cc2ccccc2)C(=O)N[C@@H](CC(=O)O)C(=O)N[C@H](C(=O)N[C@@H](CC(C)C)C(=O)N[C@@H](C)C(=O)O)[C@@H](C)O)NC(=O)[C@H](CCCNC(=N)N)NC(=O)[C@H](CCCNC(=N)N)NC(=O)[C@H]([C@@H](C)O)NC1=O [S-pep1, Ac-XTRRXLHRAFDTLA] (Ac-[S5]TRR[S5]LHRAFDTLA-OH; staple 1-5; C-terminus assumed)
IC50, µM* (HSV1 UL30+UL42) [2]: successfully inhibits | EC50 ([1]; 1 h): 43 µM

CC(=O)N[C@@H](CCC(=O)O)C(=O)N[C@H](C(=O)N[C@@H](CCCNC(=N)N)C(=O)N[C@@H](CCCNC(=N)N)C(=O)N[C@@]1(C)CCCC=CCCC[C@@](C)(C(=O)N[C@@H](Cc2ccccc2)C(=O)N[C@@H](CC(=O)O)C(=O)N[C@H](C(=O)N[C@@H](CC(C)C)C(=O)N[C@@H](C)C(=O)O)[C@@H](C)O)NC(=O)[C@H](CCCNC(=N)N)NC(=O)[C@H](Cc2c[nH]cn2)NC(=O)[C@H](CC(C)C)NC1=O)[C@@H](C)O [S-pep7, Ac-ETRRXLHRXFDTLA] (Ac-ETRR[S5]LHR[S5]FDTLA-OH; staple 5-9; C-terminus assumed)
EC50 ([1]; 1 h): 35.5 µM

Nc1nc2c(ncn2COCCO)c(=O)[nH]1 [Acyclovir, reference compound]
EC50 ([1]; Human alphaherpesvirus 1, Vero cells, peptides added after 1 h virus absorption, plaques counted at ~55 h, read-out: EC50, inhibition of HSV-1 plaque formation): 0.81 µM

CC(=O)N[C@@]1(C)CCCC=CCCC[C@@](C)(C(=O)N[C@@H](CC(C)C)C(=O)N[C@@H](Cc2c[nH]cn2)C(=O)N[C@@H](CCCNC(=N)N)C(=O)N[C@@H](C)C(=O)N[C@@H](Cc2ccccc2)C(N)=O)NC(=O)[C@H](CCCNC(=N)N)NC(=O)[C@H](CCCNC(=N)N)NC(=O)[C@H]([C@@H](C)O)NC1=O [S-pep2, Ac-XTRRXLBRAF-NH2] (Ac-[S5]TRR[S5]LHRAF-NH2; staple 1-5)
IC50 [2]: > 200 µM

Ac-[S5]TRR[S5]LHRAF-NH2 (staple 1-5) [S-pep2]
IC50, µM (HSV1 UL30+UL42); HSV-1 DNA synthesis inhibition [3]: > 200 µM

Ac-VTRR[S5]LHR[S5]FDTLA (staple 5-9) [S-pep7A]
IC50, µM (HSV1 UL30+UL42); HSV-1 DNA synthesis inhibition [3]: 1.7 µM

Ac-AE[S5]TRR[S5]LHRAFDTLA (staple 3-7) [S-pep3]
IC50, µM (HSV1 UL30+UL42); HSV-1 DNA synthesis inhibition [3]: 12.7 µM

Ac-VVTRR[S5]LHR[S5]FDTLA (staple 6-10) [S-pep7B]
IC50, µM (HSV1 UL30+UL42); HSV-1 DNA synthesis inhibition [3]: 1 µM

Ac-RRTRR[S5]LHR[S5]FDTLA (staple 6-10) [S-pep7D]
IC50, µM (HSV1 UL30+UL42); HSV-1 DNA synthesis inhibition [3]: 2 µM

Ac-[S5]RRM[S5]HRAFDTLA (staple 1-5) [S-pep5]
IC50, µM (HSV1 UL30+UL42); HSV-1 DNA synthesis inhibition [3]: > 200 µM

Ac-RTRR[S5]LHR[S5]FDTLA (staple 5-9) [S-pep7C]
IC50, µM (HSV1 UL30+UL42); HSV-1 DNA synthesis inhibition [3]: 1.7 µM

Ac-[S5]TRR[S5]LHRAFDTLA (staple 1-5) [S-pep1]
IC50, µM (HSV1 UL30+UL42); HSV-1 DNA synthesis inhibition [3]: 12 µM

Ac-ETRR[S5]LHR[S5]FDTLA (staple 5-9) [S-pep7]
IC50, µM (HSV1 UL30+UL42); HSV-1 DNA synthesis inhibition [3]: 5.5 µM

Ac-ETRRMLH[S5]AFD[S5]LA (staple 8-12) [S-pep8]
IC50, µM (HSV1 UL30+UL42); HSV-1 DNA synthesis inhibition [3]: 20.7 µM
